According to patent publication US12357711B2, “PSMA binding dual mode radiotracer and therapeutic” (Technische Universität München, priority 2019, dated 2025):
Where “and” joins values, the source holds several entries; their conditions need not be identical. Equal entries are not always repeated. Where two headings read alike, the source gives them in different places.

What was measured:
[1] = test system: LNCaP tumor-bearing SCID mice; experiment: Biodistribution at 1 h p.i. with competition (co-injected PMPA); type: in vivo; details: co-injected with PMPA (8 mg/kg)
Procedure: FIG. 11: Biodistribution [% ID/g] of ^18F-rhPSMAs co-injected with PMPA (8 mg/kg) at 1 h p.i in LNCaP tumor-bearing SCID mice. Data are expressed as mean±SD (n=3).

[2] = Octanol-water partition coefficient (n-octanol/PBS pH 7.4); type: physicochemical; details: octanol/PBS7.4
Procedure: Approximately 1 MBq of the labeled tracer was dissolved in 1 mL of a 1:1 mixture (by volumes) of phosphate buffered saline (PBS, pH 7.4) and n-octanol in an Eppendorf tube. After vigorous mixing of the suspension for 3 minutes at room temperature, the vial was centrifuged at 15000 g for 3 minutes (Biofuge 15, Heraus Sepatech, Osterode, Germany) and 100 μL aliquots of both layers were measured in a gamma counter. The experiment was repeated at least six times.
Determianation of the IogP values was carried out in phosphate buffered saline (PBS, pH 7.4) and n-octanol (=logPoct/PBS).

PSMA = molecular target: T1, PSMA (Homo sapiens, UniProt Q04609); experiment: Determination of IC50: PSMA affinity, competitive binding on LNCaP cells against ([125I]I-BA)KuE; details: LNCaP cells, [125I]IB-KuE c=0.2 nM, 1 h, 4° C.
T1 construct: endogenous in cells; host or cells: LNCaP cells
Procedure: Data are expressed as mean±SD (n=3, in 3 different experiments).
After removal of the culture medium, the cells were treated once with 500 μL of HBSS (Hank's balanced salt solution, Biochrom, Berlin, Germany, with addition of 1% bovine serum albumin (BSA)) and left 15 min on ice for equilibration in 200 μL HBSS (1% BSA). […] Quantification of bound and free radioligand was accomplished in a γ-counter.

T1 sequence (Q04609 whole entry): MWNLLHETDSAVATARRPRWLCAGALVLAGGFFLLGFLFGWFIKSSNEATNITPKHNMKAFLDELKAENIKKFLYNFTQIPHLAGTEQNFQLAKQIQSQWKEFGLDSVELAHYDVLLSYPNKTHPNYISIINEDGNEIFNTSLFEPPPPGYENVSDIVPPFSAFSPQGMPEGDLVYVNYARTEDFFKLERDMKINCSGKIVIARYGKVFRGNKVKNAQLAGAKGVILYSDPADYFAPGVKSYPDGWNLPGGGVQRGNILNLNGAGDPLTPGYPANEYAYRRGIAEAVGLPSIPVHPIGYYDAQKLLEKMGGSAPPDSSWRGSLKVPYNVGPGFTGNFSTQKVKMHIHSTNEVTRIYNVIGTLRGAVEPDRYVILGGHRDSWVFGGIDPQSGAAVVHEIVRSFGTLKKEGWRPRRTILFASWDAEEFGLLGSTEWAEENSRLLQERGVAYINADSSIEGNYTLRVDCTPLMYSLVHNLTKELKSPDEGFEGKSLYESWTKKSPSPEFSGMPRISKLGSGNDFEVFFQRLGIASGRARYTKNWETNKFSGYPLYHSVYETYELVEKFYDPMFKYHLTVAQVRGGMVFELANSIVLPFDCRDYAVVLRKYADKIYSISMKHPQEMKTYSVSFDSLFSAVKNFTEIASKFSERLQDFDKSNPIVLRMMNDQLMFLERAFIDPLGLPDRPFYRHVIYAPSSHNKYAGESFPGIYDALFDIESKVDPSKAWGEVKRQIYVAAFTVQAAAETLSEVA

**Q.** For `CC(C)(C)[Si](F)(c1ccc(C(=O)NC[C@@H](NC(=O)CC[C@@H](C(=O)O)N2CCN(CC(=O)[O-])CCN(CC(=O)[O-])CCN(CC(=O)[O-])CC2)C(=O)N[C@H](CCCCNC(=O)CCC(=O)NCCC[C@@H](NC(=O)CC[C@H](NC(=O)N[C@@H](CCC(=O)O)C(=O)O)C(=O)O)C(=O)O)C(=O)O)cc1)C(C)(C)C.[Ga+3]` [rhPSMA7.3, [^19F][^natGa]D-Dap-S-DOTAGA-rhPSMA7], which Biodistribution adrenals [1] is on record?
**A.** Its Biodistribution adrenals is 0.07 ± 0.09 % ID/g.

**Q.** What about the Biodistribution blood [1] of the same molecule?
**A.** The Biodistribution blood was 0.55 ± 0.14 % ID/g.

**Q.** What about the Biodistribution bone [1] of the same molecule?
**A.** The Biodistribution bone was 0.34 ± 0.22 % ID/g.

**Q.** What about the Biodistribution heart [1] of the same molecule?
**A.** Its Biodistribution heart is 0.26 ± 0.04 % ID/g.

**Q.** What about the Biodistribution intestine [1] of the same molecule?
**A.** Its Biodistribution intestine is 0.94 ± 0.97 % ID/g.

**Q.** What about the Biodistribution kidneys [1] of the same molecule?
**A.** The Biodistribution kidneys was 15.5 ± 2.2 % ID/g.

**Q.** What about the Biodistribution liver [1] of the same molecule?
**A.** The Biodistribution liver was 0.46 ± 0.14 % ID/g.

**Q.** What about the Biodistribution lung [1] of the same molecule?
**A.** Its Biodistribution lung is 0.69 ± 0.10 % ID/g.

**Q.** And the Biodistribution muscle [1]?
**A.** Its Biodistribution muscle is 0.09 ± 0.02 % ID/g.

**Q.** What about the Biodistribution pancreas [1] of the same molecule?
**A.** Its Biodistribution pancreas is 0.11 ± 0.02 % ID/g.

**Q.** And the Biodistribution spleen [1]?
**A.** The Biodistribution spleen was 0.35 ± 0.02 % ID/g.

**Q.** What about the Biodistribution stomach [1] of the same molecule?
**A.** Its Biodistribution stomach is 0.76 ± 0.74 % ID/g.

**Q.** What about the Biodistribution tumor ([1]; LNCaP tumor) of the same molecule?
**A.** Its Biodistribution tumor is 1.5 ± 0.4 % ID/g.

**Q.** And the “log P Mean” value ([2]; mean of individual measurements)?
**A.** Its value is −3.26.

**Q.** And the “individual log P measurements” value ([2]; single measurements)?
**A.** The value was −3.06 and −3.07 and −2.86 and −3.39 and −3.33 and −3.34 and −3.20 and −3.40 and −3.41 and −3.48 and −3.49 and −3.32 and −3.45 and −3.53 and −3.43 and −3.56 and −3.03 and −3.08 and −3.02.

**Q.** What about the IC50 (PSMA; HBSS+1% BSA, single measurements, read-out: individual IC50 measurements) of the same molecule?
**A.** Its IC50 is 3.17 nM and 2.91 nM and 5.35 nM and 5.74 nM and 4.59 nM and 4.45 nM.

**Q.** What about the IC50 (PSMA; mean of individual measurements, read-out: IC50 Mean) of the same molecule?
**A.** The IC50 was 4.37 nM.
